From US10407409B2, “6-(5-hydroxy-1H-pyrazol-1-yl)nicotinamide inhibitors of PHD” (Takeda Pharmaceutical Company Limited, priority 2013, dated 2019)

Legend:
[1] = biological target: PHD2 enzyme (residues 181-417) (Homo sapiens (Human), UniProt Q9GZT9); assay: Inhibition of PHD enzyme (LC/MS peptide hydroxylation assay); type: biochemical; conditions: PHD2 (residues 181-417) 5 nM, 60 min pre-incubation; -log(IC50), IC50 molar
Outline: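 PHD2 (5 nM final) preincubated with inhibitor 60 min at RT in 50 mM HEPES, 50 mM KCl, 0.5 mM TCEP, 2 uM FeCl2, 0.1 mg/ml BSA, pH 7.3. Reaction started with biotin-peptide (1 uM), 2-oxoglutarate (2 uM), ascorbate (1 mM), quenched at 60 min; hydroxylated product by LC/MS, reported as pIC50.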

[2] = test system: HIF1a protein in H9c2 rat cardiomyocytes; assay: Cell-based HIF-alpha stabilization assay (inhibition of PHD in cells); conditions: 24 hrs compound incubation, HIF1a protein by ELISA; for EC50: Rattus norvegicus, H9c2, 24 h, read-out: Inhibition of PHD in cells (pEC50) (converted)
Outline: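 Rat H9c2 cardiomyocytes, cultured 24 h, were treated 24 h with an 11-point serial dilution of compound. HIF1a in whole-cell lysates was quantified by ELISA as % of the maximal desferrioxamine response. EC50 came from curve fitting; EC50pos is the concentration reaching 50% of the desferrioxamine maximum.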

PHD2 enzyme (residues 181-417), sequence (Q9GZT9 181-417): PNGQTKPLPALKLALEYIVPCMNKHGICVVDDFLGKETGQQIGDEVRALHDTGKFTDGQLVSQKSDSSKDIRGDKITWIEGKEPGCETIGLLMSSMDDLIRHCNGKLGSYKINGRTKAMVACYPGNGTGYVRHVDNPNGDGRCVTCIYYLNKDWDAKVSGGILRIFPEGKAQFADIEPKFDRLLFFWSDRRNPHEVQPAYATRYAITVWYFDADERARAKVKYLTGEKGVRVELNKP

Structure (SMILES)	PHD Inhibition (pIC50) [1]	EC50 [2]	Inhibition of PHD in cells (pEC50) [2]
COCC1(CNC(=O)c2ccc(-n3ncc(-c4ccc(C#N)cc4C)c3O)nc2)CC1 [Example 135, 6-(4-(4-cyano-2-methylphenyl)-5-hydroxy-1H-pyrazol-1-yl)-N-((1-(methoxymethyl)cyclopropyl)methyl)nicotinamide]	7.15	148 nM	
N#Cc1ccc(-c2cnn(-c3ccc(C(=O)NC4CC(F)(F)C4)cn3)c2O)cc1 [Example 265, 6-(4-(4-cyanophenyl)-5-hydroxy-1H-pyrazol-1-yl)-N-(3,3-difluorocyclobutyl)nicotinamide]	6.77	6610 nM	
COCCCCNC(=O)c1ccc(-n2ncc(-c3ccc(C#N)cc3C)c2O)nc1 [Example 179, 6-(4-(4-cyano-2-methylphenyl)-5-hydroxy-1H-pyrazol-1-yl)-N-(4-methoxybutyl)nicotinamide]	8.3	123 nM	
CN(C)CC(C)(C)NC(=O)c1ccc(-n2ncc(-c3ccc(C#N)cc3)c2O)nc1 [Example 109, 6-(4-(4-cyanophenyl)-5-hydroxy-1H-pyrazol-1-yl)-N-(1-(dimethylamino)-2-methylpropan-2-yl)nicotinamide]	7.7	1200 nM	
COc1cc(-c2cnn(-c3ccc(C(=O)NCCOC(C)C)cn3)c2O)ccn1 [Example 7, 6-(5-hydroxy-4-(2-methoxypyridin-4-yl)-1H-pyrazol-1-yl)-N-(2-isopropoxyethyl)nicotinamide]	7.03	1000 nM	
N#Cc1ccc(-c2cnn(-c3ccc(C(=O)NCc4ccccc4)cn3)c2O)c(Cl)c1 [Example 196, N-benzyl-6-(4-(2-chloro-4-cyanophenyl)-5-hydroxy-1H-pyrazol-1-yl)nicotinamide]	6.84	3550 nM	
COc1cc(-c2cnn(-c3ccc(C(=O)N(C)C4CC4)cn3)c2O)ccn1 [Example 243, N-cyclopropyl-6-(5-hydroxy-4-(2-methoxypyridin-4-yl)-1H-pyrazol-1-yl)-N-methylnicotinamide]	6.9	4170 nM	
COC[C@H]1CCC[C@H]1NC(=O)c1ccc(-n2ncc(-c3ccnc(OC)c3)c2O)nc1 [Example 45, 6-(5-hydroxy-4-(2-methoxypyridin-4-yl)-1H-pyrazol-1-yl)-N-((1R,2S)-2-(methoxymethyl)cyclopentyl)nicotinamide]	8	562 nM	
Cc1cc(C#N)ccc1-c1cnn(-c2ccc(C(=O)NCCCO)cn2)c1O [Example 125, 6-(4-(4-cyano-2-methylphenyl)-5-hydroxy-1H-pyrazol-1-yl)-N-(3-hydroxypropyl)nicotinamide]	7.19	372 nM	
COCC1(CNC(=O)c2ccc(-n3ncc(-c4ccc(C#N)cc4)c3O)nc2)CCCC1 [Example 147, 6-(4-(4-cyanophenyl)-5-hydroxy-1H-pyrazol-1-yl)-N-((1-(methoxymethyl)cyclopentyl)methyl)nicotinamide]	7.9	3240 nM	
COCC1(NC(=O)c2ccc(-n3ncc(-c4ccc(C#N)cc4)c3O)nc2)CCC1 [Example 199, 6-(4-(4-cyanophenyl)-5-hydroxy-1H-pyrazol-1-yl)-N-(1-(methoxymethyl)cyclobutyl)nicotinamide]	6.89	2340 nM	
COc1cc(-c2cnn(-c3ccc(C(=O)NCC4CCN(C)CC4)cn3)c2O)ccn1 [Example 30, 6-(5-hydroxy-4-(2-methoxypyridin-4-yl)-1H-pyrazol-1-yl)-N-((1-methylpiperidin-4-yl)methyl)nicotinamide]	7.5	2000 nM	
COc1cc(-c2cnn(-c3ccc(C(=O)NC4CC4)cn3)c2O)ccn1 [Example 204, N-cyclopropyl-6-(5-hydroxy-4-(2-methoxypyridin-4-yl)-1H-pyrazol-1-yl)nicotinamide]	7.08	468 nM	
COc1cc(-c2cnn(-c3ccc(C(=O)NCCCN4CCCCC4)cn3)c2O)ccn1 [Example 38, 6-(5-hydroxy-4-(2-methoxypyridin-4-yl)-1H-pyrazol-1-yl)-N-(3-(piperidin-1-yl)propyl)nicotinamide]	7.5		6.02
COc1cc(-c2cnn(-c3ccc(C(=O)NCCC(C)OC)cn3)c2O)ccn1 (stereo not drawn) [Example 50, 6-(5-hydroxy-4-(2-methoxypyridin-4-yl)-1H-pyrazol-1-yl)-N-(3-methoxybutyl)nicotinamide]	8.1	871 nM	
N#Cc1ccc(-c2cnn(-c3ccc(C(=O)NC4CCOCC4)cn3)c2O)cc1 [Example 81, 6-(4-(4-cyanophenyl)-5-hydroxy-1H-pyrazol-1-yl)-N-(tetrahydro-2H-pyran-4-yl)nicotinamide]	7.2	4790 nM	
COCC1(CNC(=O)c2ccc(-n3ncc(-c4ccnc(OC)c4)c3O)nc2)CCCC1 [Example 47, 6-(5-hydroxy-4-(2-methoxypyridin-4-yl)-1H-pyrazol-1-yl)-N-((1-(methoxymethyl)cyclopentyl)methyl)nicotinamide]	8.4	355 nM	
CCCNC(=O)c1ccc(-n2ncc(-c3ccc(C#N)cc3)c2O)nc1 [Example 267, 6-(4-(4-cyanophenyl)-5-hydroxy-1H-pyrazol-1-yl)-N-propylnicotinamide]	7.36	708 nM	
COCC1(NC(=O)c2ccc(-n3ncc(-c4ccnc(OC)c4)c3O)nc2)CCCC1 [Example 3, 6-(5-hydroxy-4-(2-methoxypyridin-4-yl)-1H-pyrazol-1-yl)-N-(1-(methoxymethyl)cyclopentyl)nicotinamide]	7.3	724 nM	
N#Cc1cnn(-c2cnn(-c3ccc(C(=O)NCc4ccccc4)cn3)c2O)c1 [Example 157, N-benzyl-6-(4-cyano-5′-hydroxy-1′H-[1,4′-bipyrazol]-1′-yl)nicotinamide]	6.97	1700 nM	
COCC[C@H](C)NC(=O)c1ccc(-n2ncc(-c3ccc(C#N)cc3)c2O)nc1 [Example 358, (S)-6-(4-(4-cyanophenyl)-5-hydroxy-1H-pyrazol-1-yl)-N-(4-methoxybutan-2-yl)nicotinamide]	8.75	1150 nM	

Further lines, with some results ahead:

PHD Inhibition (pIC50) [1]	Structure (SMILES)	EC50 [2]	Inhibition of PHD in cells (pEC50) [2]
7.93	CCN(C)[C@H]1CCCN(C(=O)c2ccc(-n3ncc(-c4ccc(C#N)cc4C)c3O)nc2)C1 [Example 384, (S)-4-(1-(5-(3-(ethyl(methyl)amino)piperidine-1-carbonyl)pyridin-2-yl)-5-hydroxy-1H-pyrazol-4-yl)-3-methylbenzonitrile]	1510 nM	
8.18	Cc1cc(C#N)ccc1-c1cnn(-c2ccc(C(=O)N3CC(N(C)C4CC4)C3)cn2)c1O [Example 298, 4-(1-(5-(3-(cyclopropyl(methyl)amino)azetidine-1-carbonyl)pyridin-2-yl)-5-hydroxy-1H-pyrazol-4-yl)-3-methylbenzonitrile]	977 nM	
8.3	Cc1cc(C#N)ccc1-c1cnn(-c2ccc(C(=O)NCC3CCCCO3)cn2)c1O (stereo not drawn) [Example 142, 6-(4-(4-cyano-2-methylphenyl)-5-hydroxy-1H-pyrazol-1-yl)-N-((tetrahydro-2H-pyran-2-yl)methyl)nicotinamide]	85.1 nM	
8.40	Cc1c(-c2cnn(-c3ccc(C(=O)N4CC(N(C)C)C4)cn3)c2O)ccc(C#N)c1F [Example 321, 4-(1-(5-(3-(dimethylamino)azetidine-1-carbonyl)pyridin-2-yl)-5-hydroxy-1H-pyrazol-4-yl)-2-fluoro-3-methylbenzonitrile]	589 nM	
8.49	COCCCNC(=O)c1ccc(-n2ncc(-c3ccc(C#N)c(F)c3C)c2O)nc1 [Example 406, 6-(4-(4-cyano-3-fluoro-2-methylphenyl)-5-hydroxy-1H-pyrazol-1-yl)-N-(3-methoxypropyl)nicotinamide]	191 nM	
7.77	Cc1cc(C#N)ccc1-c1cnn(-c2ccc(C(=O)N3CCC(CN(C)C)C3)cn2)c1O (stereo not drawn) [Example 349, 4-(1-(5-(3-((dimethylamino)methyl)pyrrolidine-1-carbonyl)pyridin-2-yl)-5-hydroxy-1H-pyrazol-4-yl)-3-methylbenzonitrile]	479 nM	
8.06	Cc1cc(C#N)ccc1-c1cnn(-c2ccc(C(=O)N3CCN(C4CC4)[C@H](C)C3)cn2)c1O [Example 375, (R)-4-(1-(5-(4-cyclopropyl-3-methylpiperazine-1-carbonyl)pyridin-2-yl)-5-hydroxy-1H-pyrazol-4-yl)-3-methylbenzonitrile]	1000 nM	
7.80	Cc1cc(C#N)ccc1-c1cnn(-c2ccc(C(=O)N3CCC[C@@H]3CN3CCCC3)cn2)c1O [Example 365, (R)-4-(5-hydroxy-1-(5-(2-(pyrrolidin-1-ylmethyl)pyrrolidine-1-carbonyl)pyridin-2-yl)-1H-pyrazol-4-yl)-3-methylbenzonitrile]	417 nM	
6.95	Cc1cc(C#N)ccc1-c1cnn(-c2ccc(C(=O)N[C@H](C)C3CC3)cn2)c1O [Example 138A, (R)-6-(4-(4-cyano-2-methylphenyl)-5-hydroxy-1H-pyrazol-1-yl)-N-(1-cyclopropylethyl)nicotinamide]	302 nM	
